# Results: a melting point compilation (Tetko et al.; mined from patent text by program, amines drawn as free bases though some values may be those of a salt)
row,melting point [°C],SMILES
1,92,Cc1cn(-c2cccc(C3=Nc4ccc(-c5ccccc5F)cc4NC(=O)C3)c2)c(C)n1
2,320 to 323,Cn1c(=O)c(-c2ccc(Cl)cc2Cl)cc2c3cc(-c4ccno4)ccc3[nH]c21
3,67 to 68,CCC(=O)CCCCCCC(=O)c1ccc(OCc2ccccc2)c(OCc2ccccc2)c1
4,270 to 274,COc1ccc(-c2ccc(C(=O)O)cc2)cc1-c1cccc([N+](=O)[O-])c1
5,182 to 184,COc1ccc(S(=O)(=O)C2(CCCC#Cc3ccc(C(=O)O)cc3C)SC(=O)NC2=O)cc1 (stereo unspecified)
6,245 to 248,Cc1ccc(-c2c(-c3ccc(S(C)(=O)=O)cc3)cnn(-c3ccc(F)cc3)c2=O)cc1F
7,153 to 156,CCc1cc2c(ccc(=O)n2Cc2ccc([N+](=O)[O-])cc2)c(CC)n1
8,247 to 249,O=C(O)c1ccc(-c2ccc3c(c2)CCN(CCN2CCCC2)C3=O)cc1
9,139 to 141,CCC(=O)N[C@@H]1CN(C(=O)c2nn(C)c3ccccc23)C[C@@H]1C (relative stereo)
10,56 to 57,CC(=O)SCCc1noc(C(C)c2ccc(-c3ccccc3)c(F)c2)n1 (stereo unspecified)
11,245 to 248,CC(C)(C)c1ccc(-c2nn3c(=O)c([N+](=O)[O-])c(Cl)nc3s2)cc1
12,181 to 183,COc1c(-c2cc3c(s2)CCC/C3=N\OCc2cccnc2)ccc2c(=O)c(C(=O)O)cn(C3CC3)c12
13,175 to 178,O=C(c1cccs1)c1cnn2c(-c3cccc(-c4ccc(CN5CCOCC5)cc4)c3)ccnc12
14,159,CS(=O)COC(=O)c1oc(-c2ccccc2)cc(=O)c1Br (stereo unspecified)
15,163 to 165,CSc1nn2c(Cl)cc(C)nc2c1S(=O)(=O)c1ccccc1
16,122 to 132,Cc1noc(NS(=O)(=O)c2ccccc2-c2ccc(-c3ncco3)cc2CN(C)C(=O)c2ccc(Cl)cc2)c1C
17,204,COc1cc(N(CC(N)=O)S(=O)(=O)c2ccc(OC)c(OC)c2)c(C(O)c2c(F)cccc2F)cc1C (stereo unspecified)
18,145 to 147,COc1cc(C(C)C)ccc1C1(NC(=O)C2CC2)C(=O)c2ccccc2C1=O
19,198 to 199,O=C(c1cc(-c2ccccc2)c(N2CCOCC2)s1)c1ccc(Cl)cc1Cl
20,59 to 61,O=C1c2ccccc2OCN1CCO
21,> 300,Cc1[nH]n(Cc2cccc(C(=O)O)c2)c2nc(-c3ccncc3)nc(=O)c1-2
22,164 to 166,O=C1[C@H]2CCCC[C@H]2Nc2ccccc2N1Cc1ccccc1 (relative stereo)
23,182 to 183,Cn1cc(-c2ccc(=O)n(Cc3cccc(-c4ncc(OCCO)cn4)c3)n2)cn1
24,64 to 66,C[C@@H](S[C@H]1CC[C@H](/C=C/c2ccc(Cl)cc2)CC1)[C@](O)(Cn1cncn1)c1ccc(F)cc1F

row,melting point [°C],SMILES
1,167 to 169,Nc1ccc(CCNC(=O)c2cc(O)c(O)c(O)c2)cc1
2,221 to 222,CCOC(=O)c1ccc(-c2[nH]nc3c2C(=O)c2c(NC(=O)NN4CCC[C@@H]4COC)cccc2-3)s1
3,166 to 168,N#Cc1ccc(C2CC(n3ccnc3)c3ccccc3N2)cc1 (stereo unspecified)
4,> 72,CCOC(=O)c1c(N2CC3CC2CN3)c2cc(C)ccc2n(Cc2ccccc2)c1=O (stereo unspecified)
5,133 to 134,COC(=O)C(=O)c1ccc(OCCOc2ccc3ccccc3c2)c(Cl)c1
6,184 to 185,CCOc1ccc(C(=O)Nc2ccccc2)cc1Nc1cccc(C(F)(F)F)c1
7,68 to 70,C#CCOC(=O)c1ccc2ccccc2c1
8,108 to 111,COCCOc1nc(SC)c(C#N)c(N2CCc3ccccc3CC2)n1
9,101 to 103,CC(C)C(=O)c1ccc(-c2ccc3c(c2)CC[C@H]2N(C)C(=O)CC[C@]32C)cc1
10,121,CC(c1ccc(COCc2ccccc2)o1)N(O)C(N)=O (stereo unspecified)
11,> 200,O=C(O)c1ccc(S(=O)(=O)n2c(=O)[nH]c3cc(Cl)ccc3c2=O)cc1
12,198 to 200,O=C(Nc1cc2ncc(CN3CCCC3)cc2cc1F)c1ccc(-c2ccc(F)cc2)cc1
13,148 to 150,CCOC(=O)C1=C(COCCNc2nccc(=O)[nH]2)NC(C)=C(C(=O)OC)C1c1ccccc1Cl (stereo unspecified)
14,200 to 202,CCC1(NC(=O)c2cc(OC)ccn2)CCCCn2c1nc(-c1ccncn1)cc2=O (racemic)
15,88 to 90,Cc1ccc(C(=O)C2(n3ccnc3)CC2)cc1
16,158,CCCc1nc(C)n2nc(S(=O)(=O)N(C)C)nc2c1Cc1ccc(-c2ccccc2C#N)cc1
17,185 to 188,C=C1CSC2C(NC(=O)COc3ccccc3)C(=O)N2C1C(=O)O (stereo unspecified)
18,242 to 243,CCCCc1ccc(C(=O)NCc2c[nH]c(=S)n2[C@H]2CCc3c(F)cc(F)cc3C2)cc1
19,230 to 232,O=C1CCC(c2ccc(OCCCN3C(=O)c4ccccc4C3=O)c(Cl)c2)=NN1
20,75 to 76,Cc1cccc(N2CCN(C(=O)CCCCCCC(=O)NO)CC2C)c1 (stereo unspecified)
21,206 to 210,O=C(O)Cc1c(C(=O)c2ccccc2)[nH]c2ccc(Cl)c(Cl)c12
22,113 to 114,CCOC(=O)n1ccc2cc(N)ccc21
23,207 to 209,CCc1c2c(nn1-c1ccccc1)c(Cl)nc1ccccc12
24,87 to 90,Cc1ccccc1S(=O)(=O)NC(=O)CCSC1c2ccccc2COc2ccc(OCc3ccc4ccc(Cl)cc4n3)cc21 (stereo unspecified)

# The next lines start with the molecule.
row,SMILES,melting point [°C]
1,CC1(C)C(=O)Nc2ccc(C3=NNC(=O)C4CC34)cc21 (stereo unspecified),334 to 335
2,CC(=O)NCCC1CCc2ccc3c(c21)CCO3 (stereo unspecified),78 to 79
3,CC(C)[Si](C#Cc1ccc2cc3c(cc2c1)Cc1cc2cc(C#C[Si](C(C)C)(C(C)C)C(C)C)ccc2cc1C3)(C(C)C)C(C)C,73 to 75
4,COc1cc2ncc(C#N)c(Nc3ccc(C)c(O)c3)c2cc1OC,222 to 224
5,COCCOc1ccc(/C=C/COC(=O)NS(=O)(=O)NCCOC(C)C)c(Oc2ncc(C(F)(F)F)cc2Cl)c1,127 to 128
6,COc1cc(Oc2cccc(C(F)(F)F)c2)nc(C(=O)NN=CCC#N)c1,98 to 100
7,CCCCCCCCCCCCCCCc1cc2cc(C(=O)O)ccc2n1C,127 to 128
8,Cc1cc2c(Cl)nc(N)nc2o1,255 to 257
9,Ic1ccc(CCN2CCOCC2)cc1,64 to 67
10,C=Cn1cc(C(=O)O)c(=O)c2cc(F)c(N3CCOCC3)cc21,218 to 220
11,CNC(=O)OC1CC(C)(C)N(C)C(C)(C)C1,96 to 97
12,C#CCOc1ccc2c(c1)nc(N)c1nc(COCC)n(CC(C)(C)NS(C)(=O)=O)c12,175 to 176
13,CON=C1CN(c2cc3c(cc2F)c(=O)c(C(=O)O)cn3C2CC2)CC12CN(C(=O)OC(C)(C)C)C2,255 to 256
14,Cc1ncsc1C(=O)Nc1ccc(-n2nc(C(F)(F)F)c(Cl)c2C2CC2)nc1,144 to 149
15,CCOC(=O)C(=Cc1ccc(C)s1)C(=O)OCC,53 to 56
16,Cc1ccc(NC(=O)c2snnc2C2CC2)cc1Cl,150 to 153
17,CCCC1=NN(c2ccc(C(=O)N(CC)CC)cc2)C(=O)C1=CNc1ccccc1CC,123
18,COc1ccc(CCc2ccc(NC=O)cc2)cc1OC,128 to 130
19,Cc1cc(F)ccc1C=CC#N,86 to 87
20,O=C(c1ccc([N+](=O)[O-])cc1)N1CCCCc2sccc21,141 to 142
21,CCCNC(=O)C(C)c1nc(CC)no1 (stereo unspecified),52 to 53
22,CCN(C(=O)SC(C)(C)C)c1cn(-c2cccnc2)nc1Cl,91 to 93
23,CC(=O)C(C(N)=O)=C(C)[N+](=O)[O-],159 to 161
24,CCC1CC(=O)C=C2CCC3C4CCC(=O)C4(C)CCC3C21C (stereo unspecified),168

row,SMILES,melting point [°C]
1,C=CCOC(=O)[C@@H]1CCC[C@@H]1C(N)=O (relative stereo),35
2,CCc1c([N+](=O)[O-])c(C(N)=O)nn1C1CN(CC)C1,177 to 179
3,OC1CSC(Oc2cccn3ncnc23)C(O)C1O (stereo unspecified),155
4,COc1cccc(Nc2c([N+](=O)[O-])cc(C(=O)O)cc2S(N)(=O)=O)c1,253 to 254
5,Brc1ccc(C2=NOCCS2)cc1,114 to 115
6,c1ccc2[nH]c(-c3cc[nH]n3)nc2c1,335 to 338
7,Cc1cc(S(=O)(=O)NC(C)C)c2c(C)ccc(C(C)C)cc1-2,128 to 130
8,CC1(C)OC(C=Cc2ccc(C(F)(F)F)cc2)=CC1=O,94 to 95
9,COc1cc2c(c3c1OC(C)(C)C3)C(c1ccncc1)=NC(C)(C)C2,173 to 175
10,Cc1cccc2c(Cl)c(Cl)sc12,48 to 50
11,COCc1nc(N)nc(N)c1-c1cccc(Cl)c1Cl,237 to 240
12,CCCCCCC(C)(C)c1ccc(C2=CC(=O)CCC2)c(O)c1,122 to 123
13,CCCCCCNC(=O)CS(=O)(=O)Nc1c(C(C)C)cccc1C(C)C,125 to 127
14,CCOC(=O)[C@H](Cc1ccc(OS(=O)(=O)C(F)(F)F)cc1)NC(=O)OC(C)(C)C,47 to 49
15,C=C(c1ccc(N(C)C)cc1)c1ccc(N(C)C)cc1C,90 to 91
16,COc1cc(OC)c(-c2nc(N3CC(C)NC(C)C3)c3c(C)c(C#N)sc3n2)cc1OC (stereo unspecified),186 to 188
17,COc1c(C)cc(-c2cncc(OC3SCC(OC(C)=O)C(OC(C)=O)C3OC(C)=O)c2)cc1C (stereo unspecified),146
18,CC(=O)NC(C)(C)c1ccc(CO)cc1,126 to 129
19,CC(=O)OCCCCCCSCC(=O)c1ccc2c(c1)CC(=O)N2,86 to 87
20,C=CCN(CC=C)c1nc(NC(=O)Cc2cccs2)n2oc(=O)nc2n1,140 to 142
21,O=C1COc2ccc(N3C(=O)C4=C(CCCC4)C3=O)cc2N1CC1CCOCC1,187 to 189
22,NS(=O)(=O)c1cccc(NC(=O)c2cnn3c(C(F)F)cc(-c4ccc(C(F)(F)F)c(OCC(F)(F)F)c4)nc23)c1,241
23,COc1cc(O)c2c(c1)C1OC1CC(O)C(O)C(=O)C=CCC(C)OC2=O (stereo unspecified),173 to 174
24,c1ccc2c(c1)-c1ccccc1C21c2ccccc2-c2ccc(-n3ccnc3-c3nccn3-c3ccc4c(c3)C3(c5ccccc5-c5ccccc53)c3ccccc3-4)cc21,404 to 412
